# Reference: patent US20090221523A1 (priority 2005, published 2009)
# Several values for one entry are separate records, joined by “and”; a condition that tells them apart may be missing. Equal entries are not always repeated. Where two headings read alike, the source gives them in different places. Marks after values point to notes of the source that are not given here.
# Experiments:
# [1] = test system: HSV-1 strain F; experiment: microbe, parasite or virus in culture; type: cell-based, herpes simplex virus; conditions: Human alphaherpesvirus 1, HFF
# [2] = test system: HSV-1 TK− strain DM2.1; experiment: microbe, parasite or virus in culture; type: cell-based, herpes simplex virus; conditions: Human alphaherpesvirus 1, HFF
# [3] = test system: CV strain delta crmA (TK+); experiment: microbe, parasite or virus in culture; type: cell-based; conditions: Cowpox virus, Vero, read-out: CV delta crmA EC50 (TK+)
# [4] = test system: CV strain TK:GFP lacZ (TK−); experiment: microbe, parasite or virus in culture; type: cell-based; conditions: Cowpox virus, Vero, read-out: CV TK:GFP lacZ EC50 (TK−)
# [5] = in vitro; conditions: human
# [6] = test system: ΔcrmA (TK+) CV strain; experiment: microbe, parasite or virus in culture; type: cell-based; conditions: Cowpox virus, HFF, read-out: EC50 CV (Δcrm lacZ) TK+
# [7] = test system: TK:GFP lacZ (TK−) CV strain; experiment: microbe, parasite or virus in culture; type: cell-based; conditions: Cowpox virus, HFF, read-out: EC50 CV (TK:gpf lacZ)
# [8] = test system: vaccinia virus (Copenhagen Strain); experiment: microbe, parasite or virus in culture; type: cell-based; conditions: Orthopoxvirus vaccinia, HFF, read-out: Vaccinia (Copenhagen) EC50
# [9] = test system: cowpox virus (Brighton strain); experiment: microbe, parasite or virus in culture; type: cell-based; conditions: HFF, read-out: Cowpox (Brighton) EC50
# [10] = test system: vaccinia virus (Copenhagen Strain); experiment: microbe, parasite or virus in culture; type: cell-based
# [11] = test system: cowpox virus (Brighton strain); experiment: microbe, parasite or virus in culture; type: cell-based; conditions: HFF, read-out: CV (Brighton) EC50
# [12] = test system: HFF cells; experiment: cells; type: cell-based; conditions: Homo sapiens, 72 h, read-out: IC50, 50% inhibition of cell proliferation
# [13] = test system: vaccinia IHD strain; parameters: species or system BALB/c mice; conditions: mouse, in vivo
# [14] = test system: cowpox Brighton Strain; parameters: species or system BALB/c mice; conditions: mouse, in vivo; for MDD, mean day of death / Mortality % / Mortality No. dead/total no.: ip
# [15] = test system: cowpox Brighton Strain; parameters: species or system BALB/c mice; conditions: mouse, in vivo
# [16] = test system: vaccinia WR strain; parameters: species or system BALB/c mice; conditions: mouse, in vivo
# [17] = test system: vaccinia (WR strain); parameters: species or system mice; Mean Lung Virus Titer: unit not given here; conditions: mouse, in vivo
# [18] = test system: vaccinia (HID strain); parameters: species or system mice; Mean Lung Virus Titer: unit not given here; conditions: mouse, in vivo
# [19] = test system: WR strain of VV; experiment: microbe, parasite or virus in culture; type: cell-based; conditions: Orthopoxvirus vaccinia, HFF, 24 h, read-out: EC50 for inhibiting VV DNA synthesis
# [20] = test system: HSV-1 strain E377; parameters: species or system BALB/c mice; conditions: mouse, in vivo
# [21] = test system: VV strain WR; parameters: species or system BALB/c mice; conditions: mouse, in vivo, ip
# [22] = test system: Epstein-Barr virus; experiment: microbe, parasite or virus in culture; type: cell-based; conditions: human gammaherpesvirus 4, read-out: EC50, inhibition of Epstein-Barr virus replication
# [23] = test system: human cytomegalovirus; type: cell-based
# [24] = test system: human herpesvirus 6; type: cell-based; conditions: betaherpesvirus without TK activity
# [25] = test system: HFF cells; conditions: human
# [26] = mouse, in vivo
# [27] = test system: Human herpesvirus 8; conditions: Zhu, et al. 2005; cited from earlier work
# [28] = test system: Cc1cn([C@H]2C[C@H](O)[C@@H](CO)O2)c(=O)[nH]c1=O; experiment: purified protein, by the assay type
# [29] = read-out: HSV-1 DM2.1 EC50 (TK−)
# [30] = read-out: EC50 HSV-1 (DM2.1) TK−
compound,measurement,setting,value
"O=c1[nH]c(=O)n([C@@H]2O[C@H](CO)[C@@H](O)[C@@H]2F)cc1I [FIAU, fialuridine]",EC50,[1]; read-out: HSV-1 F EC50 (TK+),0.05 ± 0.03 µg/mL
same,EC50,[2]; [29],3.9 ± 3.3 µg/mL
same,EC50,[3],14 ± 7 µg/mL
same,EC50,[4],19 ± 6.7 µg/mL
same,CC50,[5],> 100 µg/mL
"O=c1[nH]c(=O)n([C@H]2C[C@H](O)[C@@H](CO)O2)cc1F [FdU, 5-fluorodeoxyuridine]",EC50,[1]; read-out: HSV-1 F EC50 (TK+),2.5 ± 1.7 µg/mL
same,EC50,[2]; [29],4.5 ± 3.3 µg/mL
same,EC50,[3],0.37 µg/mL
same,EC50,[4],0.37 µg/mL
same,CC50,[5],60 ± 0.7 µg/mL
"O=c1[nH]c(=O)n([C@H]2C[C@H](O)[C@@H](CO)O2)cc1I [IDU, idoxuridine]",EC50,[1]; read-out: EC50 HSV-1 (F) TK+,2.1 ± 0.1 µg/mL
same,EC50,[1]; read-out: HSV-1 F EC50 (TK+),2.1 ± 0.1 µg/mL
same,EC50,[2]; [30],54 ± 8.1 µg/mL
same,EC50,[2]; [29],54 ± 8.1 µg/mL
same,EC50,[3],2.2 ± 0.87 µg/mL
same,EC50,[4],16 ± 9.3 µg/mL
same,EC50,[6],0.4 ± 0.18 µg/mL
same,EC50,[7],22 ± 9.3 µg/mL
same,CC50,[5],> 100 µg/mL
O=c1[nH]c(=O)n([C@H]2C[C@H](O)[C@@]3(CO)CC23)cc1Br (stereo partly drawn) [N-MCBrU],EC50,[8],0.6 µg/mL
same,EC50,[9],11.5 µg/mL
same,CC50,[5],> 100 µg/mL
"Cc1cn([C@H]2C[C@H](O)[C@]3(CO)C[C@H]23)c(=O)[nH]c1=O [N-MCT, North-methanocarbathymidine]",EC50,[8],0.73 µg/mL
same,EC50,[9],0.31 µg/mL
same,VV (Copenhagen) EC50,[10],0.55 ± 0.13 µg/mL
same,EC50,"[10]; Orthopoxvirus vaccinia, HFF, read-out: VV (Copenhagen) EC50",0.6 µg/mL
same,EC50,[11],1.5 ± 1.2 µg/mL
same,IC50,[12],29 ± 5.4 µg/mL
same,Mean Day of Death,[13],8.7 days
same,Mortality Number,[13],0/15 and 3/15
same,Animals that survived,[13]; 5.6 mg/kg,80%
same,"MDD, mean day of death","[13]; ip, 5.6 mg/kg",8.7 days
same,Mortality %,"[13]; ip, 5.6 mg/kg",20%
same,Mortality No. dead/total no.,"[13]; ip, 5.6 mg/kg",3/15
same,Mortality %,"[13]; ip, 16.7 mg/kg",0%
same,Mortality No. dead/total no.,"[13]; ip, 16.7 mg/kg",0/15
same,Mortality %,"[13]; ip, 50 mg/kg",0%
same,Mortality No. dead/total no.,"[13]; ip, 50 mg/kg",0/15
same,Mean Day of Death,[14],14.0 days and 7.5 days and 13.3 days
same,Mortality Number,[14],6/15 and 2/15 and 3/15
same,"MDD, mean day of death",[14]; 5.6 mg/kg,14.0 days
same,Mortality %,[14]; 5.6 mg/kg,40%
same,Mortality No. dead/total no.,[14]; 5.6 mg/kg,6/15
same,"MDD, mean day of death",[14]; 16.7 mg/kg,13.3 days
same,Mortality %,[14]; 16.7 mg/kg,20%
same,Mortality No. dead/total no.,[14]; 16.7 mg/kg,3/15
same,"MDD, mean day of death",[14]; 50 mg/kg,7.5 days
same,Mortality %,[14]; 50 mg/kg,13%
same,Mortality No. dead/total no.,[14]; 50 mg/kg,2/15
same,Number of Survivors,[15],9/10 and 2/10 and 1/10
same,Number of Survivors,[16],0/10
same,MDD (mean day of death ± SD of mice that died prior to day 21),[17],8.3 ± 0.6 days and 11.2 ± 4.7 days
same,Mean Lung Virus Titer,[17],7.9 ± 0.2 and 8.2 ± 0.1 and 8.3 ± 0.2
same,Survivors/Total,[17],7/10*** and 4/10* and 1/10
same,"MDD, mean day of death",[18],>21*** day
same,Mean Lung Virus Titer,[18],7.1 ± 0.3 and 8.1 ± 0.1 and 8.3 ± 0.1
same,Survivors/Total,[18],10/10***
same,EC50,[1]; read-out: EC50 HSV-1 (F) TK+,0.07 ± 0.02 µg/mL
same,EC50,[2]; [30],6.3 ± 3.9 µg/mL
same,EC50,[6],2 ± 2 µg/mL
same,EC50,[7],28 ± 2.3 µg/mL
same,EC50,[19],1 µg/mL
same,"MDD, mean day of death",[20],20 days
same,Mortality %,[20],0% and 7%
same,Mortality No. dead/total no.,[20],0/15 and 1/15
same,"MDD, mean day of death",[21]; 5.6 mg/kg,8.2 days
same,Mortality %,[21]; 5.6 mg/kg,80%
same,Mortality No. dead/total no.,[21]; 5.6 mg/kg,12/15
same,"MDD, mean day of death",[21]; 16.7 mg/kg,7.5 days
same,Mortality %,[21]; 16.7 mg/kg,13%
same,Mortality No. dead/total no.,[21]; 16.7 mg/kg,2/15
same,Mortality %,[21]; 50 mg/kg,0%
same,Mortality No. dead/total no.,[21]; 50 mg/kg,0/15
same,EC50,[22],0.45 µg/mL
same,Activity against human cytomegalovirus,[23],inactive
same,Activity against human herpesvirus 6,[24],inactive
same,CC50,[25],>100 ± 0 µg/mL
same,Tolerability in mice,[26],well tolerated
same,Sensitivity of human herpesvirus 8 to the drug,[27],sensitive
same,CC50,[5],> 100 µg/mL
"O=c1[nH]c(=O)n([C@H]2C[C@H](O)[C@@H](CO)O2)cc1C(F)(F)F [TFT, trifluridine]",EC50,[1]; read-out: HSV-1 F EC50 (TK+),1 ± 0.2 µg/mL
same,EC50,[2]; [29],1.1 ± 0.3 µg/mL
same,EC50,[3],0.42 ± 0.33 µg/mL
same,EC50,[4],0.72 ± 0.28 µg/mL
same,CC50,[5],> 100 µg/mL
purified VV TK (Vaccinia virus Copenhagen),Km,[28],49 ± 7.6 µM
same,Vmax,[28],289 µM/min/mg
